Measured values: paper PMC6152983, “An amine oxidase gene from mud crab, Scylla paramamosain, regulates the neurotransmitters serotonin and dopamine in vitro” (PLoS ONE, 2018)

Target: T1, SpAMO (Scylla paramamosain, UniProt A0A3G2KVP6)
T1 sequence (A0A3G2KVP6 2-506): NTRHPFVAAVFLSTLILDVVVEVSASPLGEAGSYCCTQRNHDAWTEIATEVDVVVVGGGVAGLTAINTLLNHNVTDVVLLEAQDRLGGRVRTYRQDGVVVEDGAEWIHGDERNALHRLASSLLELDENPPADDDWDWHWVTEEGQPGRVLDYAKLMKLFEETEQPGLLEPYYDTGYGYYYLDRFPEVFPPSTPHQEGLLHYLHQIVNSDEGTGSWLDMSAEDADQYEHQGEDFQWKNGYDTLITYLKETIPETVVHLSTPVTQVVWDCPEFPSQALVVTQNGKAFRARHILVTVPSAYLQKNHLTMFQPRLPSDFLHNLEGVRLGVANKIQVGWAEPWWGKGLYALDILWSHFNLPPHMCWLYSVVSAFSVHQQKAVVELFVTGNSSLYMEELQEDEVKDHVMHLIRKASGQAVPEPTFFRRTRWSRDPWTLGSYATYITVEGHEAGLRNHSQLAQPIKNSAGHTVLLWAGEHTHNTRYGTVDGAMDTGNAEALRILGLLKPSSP
Assay: luminol/horseradish peroxidase chemiluminescence of H2O2
Type: biochemical
Conditions: glycine buffer pH 8.0, 37 °C; 50 μL of 1.5 mmol/L substrate

## NCCc1ccc(O)c(O)c1 [dopamine]
  luminol/horseradish peroxidase chemiluminescence of H2O2: oxidative deamination of 5-HT and DA by SpAMO was significantly stronger
